According to patent US9273057B2 (Bristol-Myers Squibb Company, priority 2012, dated 2016):
pIC50: −log10 of the molar value.

Each compound was assayed against CK2A1 (CK2α/β) (Homo sapiens, UniProt P68400) (assay: CK2 kinase assay, CK2A1 (CK2α/β)). Settings: Table A; read-out: CK2A1 (CK2α/β) (IC50).
Format: biochemical

CK2A1 (CK2α/β), sequence (P68400 whole entry, species assumed): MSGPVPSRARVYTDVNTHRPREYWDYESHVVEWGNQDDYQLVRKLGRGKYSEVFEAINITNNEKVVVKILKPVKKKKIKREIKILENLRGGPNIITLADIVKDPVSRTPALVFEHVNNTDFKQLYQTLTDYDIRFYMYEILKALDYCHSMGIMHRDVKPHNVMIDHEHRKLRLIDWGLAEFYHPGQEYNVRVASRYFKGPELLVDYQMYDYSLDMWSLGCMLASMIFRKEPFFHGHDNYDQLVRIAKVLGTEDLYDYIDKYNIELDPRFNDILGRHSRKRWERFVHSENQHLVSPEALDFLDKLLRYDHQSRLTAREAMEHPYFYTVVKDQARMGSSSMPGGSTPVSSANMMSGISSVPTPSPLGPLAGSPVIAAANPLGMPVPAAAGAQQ
CK2A1 (CK2α/β), sequence (P67870 whole entry partner, species assumed): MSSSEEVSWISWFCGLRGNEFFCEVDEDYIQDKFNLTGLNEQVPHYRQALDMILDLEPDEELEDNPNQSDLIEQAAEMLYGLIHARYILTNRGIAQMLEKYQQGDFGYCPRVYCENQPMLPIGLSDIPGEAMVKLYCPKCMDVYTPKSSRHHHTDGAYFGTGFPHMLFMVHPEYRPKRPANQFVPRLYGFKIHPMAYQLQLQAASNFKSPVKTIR

SMILES	pIC50
C[C@H]1CC(CN2CCN(c3cc(C#N)cc(Nc4nc(NC5CC5)c5ncc(C#N)n5n4)c3Cl)CC2)O1 (stereo partly drawn) [Example 529, 2-((2-chloro-5-cyano-3-(4-(((4S)-4-methyloxetan-2-yl)methyl)piperazin-1-yl)phenyl)amino)-4-(cyclopropylamino)imidazo[2,1-f][1,2,4]triazine-7-carbonitrile]	8.88
C=C(C)/C=C/CN1CCN(c2cc(C#N)cc(Nc3nc(NC4CC4)c4ncc(C#N)n4n3)c2Cl)CC1 [Example 530, (E)-2-((2-chloro-5-cyano-3-(4-(4-methylpenta-2,4-dien-1-yl)piperazin-1-yl)phenyl)amino)-4-(cyclopropylamino)imidazo[2,1-f][1,2,4]triazine-7-carbonitrile]	8.20
N#Cc1cc(Nc2nc(NC3CC3)c3ncc(C#N)n3n2)c(Cl)c(N2CCN(CC3CCCO3)CC2)c1 (stereo not shown) [Example 531, 2-((2-chloro-5-cyano-3-(4-((tetrahydrofuran-2-yl)methyl)piperazin-1-yl)phenyl)amino)-4-(cyclopropylamino)imidazo[2,1-f][1,2,4]triazine-7-carbonitrile]	9.36
N#Cc1cc(Nc2nc(NC3CC3)c3ncc(C#N)n3n2)c(Cl)c(N2CCN(CC3COCCO3)CC2)c1 (stereo not shown) [Example 532, 2-((3-(4-((1,4-dioxan-2-yl)methyl)piperazin-1-yl)-2-chloro-5-cyanophenyl)amino)-4-(cyclopropylamino)imidazo[2,1-f][1,2,4]triazine-7-carbonitrile]	9.07
N#Cc1cc(Nc2nc(NC3CC3)c3ncc(C#N)n3n2)c(Cl)c(N2CCN(C(=O)OCC3CCCO3)CC2)c1 (stereo not shown) [Example 534, (tetrahydrofuran-2-yl)methyl 4-(2-chloro-5-cyano-3-((7-cyano-4-(cyclopropylamino)imidazo[2,1-f][1,2,4]triazin-2-yl)amino)phenyl)piperazine-1-carboxylate]	9.29
CC(C)(O)CC1(N2CCN(c3cc(C#N)cc(Nc4nc(NC5CC5)c5ncc(C#N)n5n4)c3Cl)CC2)COC1 [Example 536, 2-((2-chloro-5-cyano-3-(4-(3-(2-hydroxy-2-methylpropyl)oxetan-3-yl)piperazin-1-yl)phenyl)amino)-4-(cyclopropylamino)imidazo[2,1-f][1,2,4]triazine-7-carbonitrile]	8.81
N#Cc1cc(Nc2nc(NC3CC3)c3ncc(C#N)n3n2)c(Cl)c(N2CCN(C(CO)CO)CC2)c1 [Example 539, 2-((2-chloro-5-cyano-3-(4-(1,3-dihydroxypropan-2-yl)piperazin-1-yl)phenyl)amino)-4-(cyclopropylamino)imidazo[2,1-f][1,2,4]triazine-7-carbonitrile]	9.03
CCNc1nc(Nc2cc(C#N)cc(N3CCN(C4(C)COC4)CC3)c2Cl)nn2c(C#N)cnc12 [Example 542, 2-((2-chloro-5-cyano-3-(4-(3-methyloxetan-3-yl)piperazin-1-yl)phenyl)amino)-4-(ethylamino)imidazo[2,1-f][1,2,4]triazine-7-carbonitrile]	8.87
CN1CCN(C(=O)C2CCN(c3cc(C(F)F)cc(Nc4nc(NC5CC5)c5ncc(C#N)n5n4)c3Cl)CC2)CC1 [Example 546, 2-((2-chloro-5-(difluoromethyl)-3-(4-(4-methylpiperazine-1-carbonyl)piperidin-1-yl)phenyl)amino)-4-(cyclopropylamino)imidazo[2,1-f][1,2,4]triazine-7-carbonitrile]	8.57
N#Cc1cnc2c(NC3CC3)nc(Nc3cc(C(F)F)cc(N4CCC(C(=O)NC5COC5)CC4)c3Cl)nn12 [Example 547, 1-(2-chloro-3-((7-cyano-4-(cyclopropylamino)imidazo[2,1-f][1,2,4]triazin-2-yl)amino)-5-(difluoromethyl)phenyl)-N-(oxetan-3-yl)piperidine-4-carboxamide]	8.64
N#Cc1cc(Nc2nc(NC3CC3)c3ncc(C#N)n3n2)c(F)c(N2CCN(C3COC3)CC2)c1 [Example 548, 2-((5-cyano-2-fluoro-3-(4-(oxetan-3-yl)piperazin-1-yl)phenyl)amino)-4-(cyclopropylamino)imidazo[2,1-f][1,2,4]triazine-7-carbonitrile]	9.10
N#Cc1cc(Nc2nc(NC3CC3)c3ncc(C#N)n3n2)c(F)c(N2CCN(C3CCOC3)CC2)c1 (stereo not shown) [Example 554, 2-((5-cyano-2-fluoro-3-(4-(tetrahydrofuran-3-yl)piperazin-1-yl)phenyl)amino)-4-(cyclopropylamino)imidazo[2,1-f][1,2,4]triazine-7-carbonitrile]	8.30
N#Cc1cc(Nc2nc(NC3CC3)c3ncc(C#N)n3n2)c(F)c(N2CCN(C3(C#N)COC3)CC2)c1 [Example 555, 2-((5-cyano-3-(4-(3-cyanooxetan-3-yl)piperazin-1-yl)-2-fluorophenyl)amino)-4-(cyclopropylamino)imidazo[2,1-f][1,2,4]triazine-7-carbonitrile]	8.91
N#Cc1cnc2c(NC3CC3)nc(Nc3cc(OC(F)F)cc(N4CCN(C5COC5)CC4)c3Cl)nn12 [Example 557, 2-((2-chloro-5-(difluoromethoxy)-3-(4-(oxetan-3-yl)piperazin-1-yl)phenyl)amino)-4-(cyclopropylamino)imidazo[2,1-f][1,2,4]triazine-7-carbonitrile]	8.69

The remaining lines, values ahead:

pIC50	SMILES
9.37	N#Cc1cc(Nc2nc(NC3CC3)c3ncc(C#N)n3n2)c(Cl)c(N2CCN(C(=O)OCC3(CO)COC3)CC2)c1 [Example 533, (3-(hydroxymethyl)oxetan-3-yl)methyl 4-(2-chloro-5-cyano-3-((7-cyano-4-(cyclopropylamino)imidazo[2,1-f][1,2,4]triazin-2-yl)amino)phenyl)piperazine-1-carboxylate]
8.98	N#Cc1cc(Nc2nc(NC3CC3)c3ncc(C#N)n3n2)c(Cl)c(N2CCN(C3(CCO)COC3)CC2)c1 [Example 537, 2-((2-chloro-5-cyano-3-(4-(3-(2-hydroxyethyl)oxetan-3-yl)piperazin-1-yl)phenyl)amino)-4-(cyclopropylamino)imidazo[2,1-f][1,2,4]triazine-7-carbonitrile]
8.68	N#Cc1cc(Nc2nc(NC3CC3)c3ncc(C#N)n3n2)c(Cl)c(N2CCN(C3(CO)COC3)CC2)c1 [Example 538, 2-((2-chloro-5-cyano-3-(4-(3-(hydroxymethyl)oxetan-3-yl)piperazin-1-yl)phenyl)amino)-4-(cyclopropylamino)imidazo[2,1-f][1,2,4]triazine-7-carbonitrile]
8.22	CC(=O)NCC1(N2CCN(c3cc(C#N)cc(Nc4nc(NC5CC5)c5ncc(C#N)n5n4)c3Cl)CC2)COC1 [Example 540, N-((3-(4-(2-chloro-5-cyano-3-((7-cyano-4-(cyclopropylamino)imidazo[2,1-f][1,2,4]triazin-2-yl)amino)phenyl)piperazin-1-yl)oxetan-3-yl)methyl)acetamide]
9.24	CC(=O)N1CCN(C2CN(c3cc(C#N)cc(Nc4nc(NC5CC5)c5ncc(C#N)n5n4)c3Cl)C2)CC1 [Example 541, 2-((3-(3-(4-acetylpiperazin-1-yl)azetidin-1-yl)-2-chloro-5-cyanophenyl)amino)-4-(cyclopropylamino)imidazo[2,1-f][1,2,4]triazine-7-carbonitrile]
8.96	CCNc1nc(Nc2cc(C#N)cc(N3CCN(C4(CCO)COC4)CC3)c2Cl)nn2c(C#N)cnc12 [Example 543, 2-((2-chloro-5-cyano-3-(4-(3-(2-hydroxyethyl)oxetan-3-yl)piperazin-1-yl)phenyl)amino)-4-(ethylamino)imidazo[2,1-f][1,2,4]triazine-7-carbonitrile]
7.55	CCOC(=O)C1CCN(c2cc(C(F)F)cc(Nc3nc(NC4CC4)c4ncc(C#N)n4n3)c2Cl)CC1 [Example 544, ethyl 1-(2-chloro-3-((7-cyano-4-(cyclopropylamino)imidazo[2,1-f][1,2,4]triazin-2-yl)amino)-5-(difluoromethyl)phenyl)piperidine-4-carboxylate]
8.81	N#Cc1cnc2c(NC3CC3)nc(Nc3cc(C(F)F)cc(N4CCC(C(=O)O)CC4)c3Cl)nn12 [Example 545, 1-(2-chloro-3-((7-cyano-4-(cyclopropylamino)imidazo[2,1-f][1,2,4]triazin-2-yl)amino)-5-(difluoromethyl)phenyl)piperidine-4-carboxylic acid]
8.90	N#Cc1cc(Nc2nc(NC3CC3)c3ncc(C#N)n3n2)c(F)c(N2CCN(CC(O)CF)CC2)c1 (stereo not shown) [Example 549, 2-((5-cyano-2-fluoro-3-(4-(3-fluoro-2-hydroxypropyl)piperazin-1-yl)phenyl)amino)-4-(cyclopropylamino)imidazo[2,1-f][1,2,4]triazine-7-carbonitrile]
9.08	N#Cc1cc(Nc2nc(NC3CC3)c3ncc(C#N)n3n2)c(F)c(N2CCN(C3CNC3)CC2)c1 [Example 550, 2-((3-(4-(azetidin-3-yl)piperazin-1-yl)-5-cyano-2-fluorophenyl)amino)-4-(cyclopropylamino)imidazo[2,1-f][1,2,4]triazine-7-carbonitrile]
8.91	CC(=O)N1CC(N2CCN(c3cc(C#N)cc(Nc4nc(NC5CC5)c5ncc(C#N)n5n4)c3F)CC2)C1 [Example 551, 2-((3-(4-(1-acetylazetidin-3-yl)piperazin-1-yl)-5-cyano-2-fluorophenyl)amino)-4-(cyclopropylamino)imidazo[2,1-f][1,2,4]triazine-7-carbonitrile]
8.43	CCNc1nc(Nc2cc(C#N)cc(N3CCN(C4COC4)CC3)c2F)nn2c(C#N)cnc12 [Example 556, 2-((5-cyano-2-fluoro-3-(4-(oxetan-3-yl)piperazin-1-yl)phenyl)amino)-4-(ethylamino)imidazo[2,1-f][1,2,4]triazine-7-carbonitrile]
8.27	N#Cc1cnc2c(NC3CC3)nc(Nc3cc(OC(F)F)cc(N4CCNCC4)c3Cl)nn12 [Example 558, 2-((2-chloro-5-(difluoromethoxy)-3-(piperazin-1-yl)phenyl)amino)-4-(cyclopropylamino)imidazo[2,1-f][1,2,4]triazine-7-carbonitrile]
8.63	CC(=O)N1CC(N2CCN(c3cc(OC(F)F)cc(Nc4nc(NC5CC5)c5ncc(C#N)n5n4)c3Cl)CC2)C1 [Example 559, 2-((3-(4-(1-acetylazetidin-3-yl)piperazin-1-yl)-2-chloro-5-(difluoromethoxy)phenyl)amino)-4-(cyclopropylamino)imidazo[2,1-f][1,2,4]triazine-7-carbonitrile]
